Assay results: paper PMC5400565, “Real-time near-infrared fluorescence imaging using cRGD-ZW800-1 for intraoperative visualization of multiple cancer types” (Oncotarget, 2017)

How the values were obtained:
Adenosine A2A = biological target: T1, Adenosine A2A (Homo sapiens, UniProt P29274); test: Off-target screening (Eurofins Cerep), A2A; format: binding
T1 construct: Eurofins Cerep SA (contract screening)

Cannabinoid CB1 = biological target: T2, Cannabinoid CB1 (Homo sapiens, UniProt P21554); test: Off-target screening (Eurofins Cerep), CB1; format: binding
T2 construct: Eurofins Cerep SA (contract screening)
T2 sequence (P21554 whole entry): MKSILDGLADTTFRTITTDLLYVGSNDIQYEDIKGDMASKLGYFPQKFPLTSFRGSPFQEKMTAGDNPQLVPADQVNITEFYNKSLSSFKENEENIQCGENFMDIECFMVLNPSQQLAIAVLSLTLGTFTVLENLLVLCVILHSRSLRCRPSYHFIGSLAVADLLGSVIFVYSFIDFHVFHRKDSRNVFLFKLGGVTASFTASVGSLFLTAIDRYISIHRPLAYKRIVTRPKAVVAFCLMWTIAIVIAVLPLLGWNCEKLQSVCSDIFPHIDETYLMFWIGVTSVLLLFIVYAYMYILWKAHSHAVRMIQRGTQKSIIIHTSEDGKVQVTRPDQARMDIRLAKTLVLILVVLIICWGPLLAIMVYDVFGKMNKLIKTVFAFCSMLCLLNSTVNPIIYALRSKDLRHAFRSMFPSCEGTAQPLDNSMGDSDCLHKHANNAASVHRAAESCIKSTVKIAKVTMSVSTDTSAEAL

OSC-19 oral tumors = test: NIR fluorescence imaging, OSC-19 oral tumors; format: in vivo, mice; details: orthotopic OSC-19 tongue model; 10 nmol; 4 h; Pearl; n = 2; mean ± SD
Method: To induce subcutaneous tumors, colorectal cancer cells (HT-29) were injected at 4 sites on the back (500,000 cells per spot). Subsequently, these colorectal tumor cells were transplanted on the colon of other mice, as described by Tseng et al.. Approximately 500,000 pancreatic tumor cells (BxPC-3) were injected into the pancreas, as previously described by Kim et al.. Approximately 40,000 oral tumor cells (OSC-19) were injected in the tongue, as previously described by van Driel et al.. Approximately 500,000 breast tumor cells (MCF-7) were injected in both sides of the mammary fat pad to induce breast cancer tumors.
All animals were imaged using a Pearl® imager (LI-COR, Lincoln, NE) and an original FLARE® prototype. Animals with HT-29 tumors were imaged at 4 and 24 h post injection; animals with BxPC-3 and OSC-19 tumors at 4 h only. Animals with MCF-7 tumors were imaged at 0.5, 1, 2, 4, 6, 8, 24 and 48 h post injection. […] TBRs were calculated by dividing the tumor signal by the background signal. […]
(§1) Mice bearing orthotopic OSC-19 tumors (n = 2) were administrated with 10 nmol cRGD-ZW800-1 and imaged at 4 h. […] In vivo TBRs were calculated by dividing the mean fluorescence signals of tumors by the mean of surrounding tissue. Ex vivo organ-to-tumor ratios were calculated by dividing the fluorescence intensity of the organ by that of the tumor.

HT-29 tumors and organs = test: Ex vivo biodistribution, HT-29 model; format: in vivo, mice; details: 24 h post injection
Method: After imaging, mice were sacrificed and OSC-19 and BxPC-3 tumors were quickly frozen in isopentane at -80°C for histological evaluation. Tissues were sectioned at 10 μm and fluorescence imaging was performed using fluorescence microscopy (Nikon eclipse e800, Nikon, Amsterdam, The Netherlands). All histologic sections were stained with standard hematoxylin-eosin stain (HE). Organs of mice with colorectal and pancreatic cancer were collected and imaged using the Pearl® to evaluate biodistribution.
Mice were administered with 0.25 (HT-29 model only), 1.0, 10, or 30 nmol cRGD-ZW800-1 to evaluate tumor signals, biodistribution, and to calculate TBRs (n = 3 per dose group). At 4 h (BxPC-3 model) and 24 h (HT-29 model) after injection, mice were fully dissected and fluorescence intensity of their organs was measured.
as §1, with “h. Mice bearing orthotopic MCF-7 tumors (n = 2) were injected with 10 nmol cRGD-ZW800-1 and imaged at 0.5, 1, 2, 4, 6, 8, 24, and 48 h post injection.” for “h.”

[1] = biological target: T3, Cholecystokinin CCK1 (CCKA) (Homo sapiens, UniProt P32238); test: Off-target screening (Eurofins Cerep), CCK1 (CCKA); format: binding
T3 construct: Eurofins Cerep SA (contract screening)
T3 sequence (P32238 whole entry): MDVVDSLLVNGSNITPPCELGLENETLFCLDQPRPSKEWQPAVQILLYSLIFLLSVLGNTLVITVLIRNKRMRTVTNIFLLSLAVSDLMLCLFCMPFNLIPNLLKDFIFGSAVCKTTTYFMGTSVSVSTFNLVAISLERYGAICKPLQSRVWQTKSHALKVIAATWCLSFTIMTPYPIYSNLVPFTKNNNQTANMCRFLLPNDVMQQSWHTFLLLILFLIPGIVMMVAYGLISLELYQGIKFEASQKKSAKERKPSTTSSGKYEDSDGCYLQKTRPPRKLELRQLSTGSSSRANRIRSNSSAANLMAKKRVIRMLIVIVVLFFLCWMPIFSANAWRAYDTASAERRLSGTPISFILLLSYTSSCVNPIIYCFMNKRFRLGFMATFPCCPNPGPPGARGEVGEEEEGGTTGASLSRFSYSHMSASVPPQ

Acetylcholinesterase = biological target: T4, Acetylcholinesterase (Homo sapiens, UniProt P22303); test: Off-target screening (Eurofins Cerep), acetylcholinesterase; format: biochemical
T4 construct: Eurofins Cerep SA (contract screen)
T4 sequence (P22303 32-614): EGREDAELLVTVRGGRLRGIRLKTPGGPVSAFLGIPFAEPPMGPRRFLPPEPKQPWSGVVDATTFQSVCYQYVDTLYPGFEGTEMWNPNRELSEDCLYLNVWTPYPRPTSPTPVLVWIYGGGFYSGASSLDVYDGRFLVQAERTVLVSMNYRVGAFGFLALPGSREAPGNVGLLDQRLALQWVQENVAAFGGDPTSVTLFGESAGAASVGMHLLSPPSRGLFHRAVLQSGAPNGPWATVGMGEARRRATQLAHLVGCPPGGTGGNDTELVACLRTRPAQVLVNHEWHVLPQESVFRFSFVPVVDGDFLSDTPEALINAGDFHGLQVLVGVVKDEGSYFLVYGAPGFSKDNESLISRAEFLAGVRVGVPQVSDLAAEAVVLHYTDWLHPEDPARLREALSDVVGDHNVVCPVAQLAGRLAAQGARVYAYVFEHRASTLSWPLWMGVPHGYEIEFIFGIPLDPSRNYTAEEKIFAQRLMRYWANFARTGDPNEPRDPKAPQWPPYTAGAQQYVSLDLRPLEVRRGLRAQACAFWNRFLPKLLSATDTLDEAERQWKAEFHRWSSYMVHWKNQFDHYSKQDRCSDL

[2] = biological target: T5, GR (steroid nuclear receptor) (Homo sapiens, UniProt P04150); test: Off-target screening (Eurofins Cerep), GR; format: binding
T5 construct: Eurofins Cerep SA (contract screen)
T5 sequence (P04150 whole entry): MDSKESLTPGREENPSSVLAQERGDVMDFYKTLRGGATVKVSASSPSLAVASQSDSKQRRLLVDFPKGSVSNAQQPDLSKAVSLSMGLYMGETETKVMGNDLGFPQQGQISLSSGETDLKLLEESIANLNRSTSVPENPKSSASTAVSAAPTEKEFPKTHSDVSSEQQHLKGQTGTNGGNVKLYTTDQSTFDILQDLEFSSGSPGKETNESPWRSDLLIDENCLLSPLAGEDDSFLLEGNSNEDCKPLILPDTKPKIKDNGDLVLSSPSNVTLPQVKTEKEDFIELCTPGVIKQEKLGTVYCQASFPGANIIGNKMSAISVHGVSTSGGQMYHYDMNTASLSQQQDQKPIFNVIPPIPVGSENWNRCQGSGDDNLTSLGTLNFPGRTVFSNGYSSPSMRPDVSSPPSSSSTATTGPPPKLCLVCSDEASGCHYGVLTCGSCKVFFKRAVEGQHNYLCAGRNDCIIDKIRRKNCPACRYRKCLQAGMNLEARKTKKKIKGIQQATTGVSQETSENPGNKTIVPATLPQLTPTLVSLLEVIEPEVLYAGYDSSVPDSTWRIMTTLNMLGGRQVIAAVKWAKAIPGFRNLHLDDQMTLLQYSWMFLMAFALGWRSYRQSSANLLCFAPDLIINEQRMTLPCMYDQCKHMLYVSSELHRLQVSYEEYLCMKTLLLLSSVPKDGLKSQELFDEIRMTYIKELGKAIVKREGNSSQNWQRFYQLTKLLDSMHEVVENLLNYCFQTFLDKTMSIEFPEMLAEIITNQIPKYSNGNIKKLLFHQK

[3] = biological target: AR (steroid nuclear receptor) (Homo sapiens, UniProt P10275); test: Off-target screening (Eurofins Cerep), AR; format: binding
Sequence of AR (steroid nuclear receptor) (P10275 whole entry): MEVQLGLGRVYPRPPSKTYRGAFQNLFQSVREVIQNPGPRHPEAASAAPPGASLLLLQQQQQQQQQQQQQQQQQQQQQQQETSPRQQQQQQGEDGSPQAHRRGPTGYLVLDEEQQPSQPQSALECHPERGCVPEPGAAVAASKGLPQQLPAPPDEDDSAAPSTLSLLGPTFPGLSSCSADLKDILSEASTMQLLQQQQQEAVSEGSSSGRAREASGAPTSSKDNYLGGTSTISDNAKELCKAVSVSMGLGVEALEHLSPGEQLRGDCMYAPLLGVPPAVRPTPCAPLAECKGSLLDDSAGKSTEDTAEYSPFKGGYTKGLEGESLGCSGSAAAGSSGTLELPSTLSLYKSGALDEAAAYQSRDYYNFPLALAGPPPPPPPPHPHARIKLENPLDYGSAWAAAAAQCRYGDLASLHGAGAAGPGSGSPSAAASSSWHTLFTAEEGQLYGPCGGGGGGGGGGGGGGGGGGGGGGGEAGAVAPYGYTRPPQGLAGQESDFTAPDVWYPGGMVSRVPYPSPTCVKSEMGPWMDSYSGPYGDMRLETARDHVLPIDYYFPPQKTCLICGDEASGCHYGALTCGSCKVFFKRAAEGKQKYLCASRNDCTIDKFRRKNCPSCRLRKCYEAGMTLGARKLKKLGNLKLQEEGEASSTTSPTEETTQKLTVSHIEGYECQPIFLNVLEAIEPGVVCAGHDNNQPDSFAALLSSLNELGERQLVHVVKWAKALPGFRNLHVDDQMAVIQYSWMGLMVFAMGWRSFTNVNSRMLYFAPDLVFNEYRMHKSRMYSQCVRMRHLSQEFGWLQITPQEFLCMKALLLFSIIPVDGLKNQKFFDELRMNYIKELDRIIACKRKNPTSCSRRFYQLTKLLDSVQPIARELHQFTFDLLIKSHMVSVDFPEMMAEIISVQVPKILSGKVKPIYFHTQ

Opioid δ (DOP) = biological target: T6, Opioid δ (DOP) (Homo sapiens, UniProt P41143); test: Off-target screening (Eurofins Cerep), δ (DOP); format: binding
T6 construct: Eurofins Cerep SA (contract screening)
T6 sequence (P41143 whole entry): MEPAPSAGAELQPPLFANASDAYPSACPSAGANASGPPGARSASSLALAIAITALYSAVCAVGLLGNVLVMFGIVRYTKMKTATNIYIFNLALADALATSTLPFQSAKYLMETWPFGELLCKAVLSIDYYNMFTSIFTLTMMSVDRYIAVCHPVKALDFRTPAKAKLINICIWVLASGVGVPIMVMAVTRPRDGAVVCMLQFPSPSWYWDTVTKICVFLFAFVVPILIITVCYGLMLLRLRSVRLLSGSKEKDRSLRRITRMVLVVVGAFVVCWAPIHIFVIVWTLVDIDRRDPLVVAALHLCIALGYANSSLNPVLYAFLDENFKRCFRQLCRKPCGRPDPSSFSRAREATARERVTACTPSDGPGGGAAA

Opioid κ (KOP) = Opioid κ (KOP) (Rattus norvegicus, UniProt P34975); test: biochemical; format: binding
Sequence of Opioid κ (KOP) (P34975 whole entry): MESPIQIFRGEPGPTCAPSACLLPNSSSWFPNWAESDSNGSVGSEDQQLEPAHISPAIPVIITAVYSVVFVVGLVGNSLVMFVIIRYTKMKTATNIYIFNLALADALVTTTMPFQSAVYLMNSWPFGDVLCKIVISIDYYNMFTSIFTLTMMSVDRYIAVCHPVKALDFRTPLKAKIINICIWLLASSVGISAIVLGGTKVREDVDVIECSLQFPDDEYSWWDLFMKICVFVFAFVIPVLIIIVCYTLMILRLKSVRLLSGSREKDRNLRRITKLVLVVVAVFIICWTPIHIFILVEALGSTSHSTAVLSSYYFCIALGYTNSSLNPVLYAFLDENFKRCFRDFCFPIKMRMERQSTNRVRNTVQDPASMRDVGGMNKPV

Adrenergic α2A = biological target: T7, Adrenergic α2A (Homo sapiens, UniProt P08913); test: Off-target screening (Eurofins Cerep), α2A; format: binding
T7 construct: Eurofins Cerep SA (contract screening)
T7 sequence (P08913 whole entry): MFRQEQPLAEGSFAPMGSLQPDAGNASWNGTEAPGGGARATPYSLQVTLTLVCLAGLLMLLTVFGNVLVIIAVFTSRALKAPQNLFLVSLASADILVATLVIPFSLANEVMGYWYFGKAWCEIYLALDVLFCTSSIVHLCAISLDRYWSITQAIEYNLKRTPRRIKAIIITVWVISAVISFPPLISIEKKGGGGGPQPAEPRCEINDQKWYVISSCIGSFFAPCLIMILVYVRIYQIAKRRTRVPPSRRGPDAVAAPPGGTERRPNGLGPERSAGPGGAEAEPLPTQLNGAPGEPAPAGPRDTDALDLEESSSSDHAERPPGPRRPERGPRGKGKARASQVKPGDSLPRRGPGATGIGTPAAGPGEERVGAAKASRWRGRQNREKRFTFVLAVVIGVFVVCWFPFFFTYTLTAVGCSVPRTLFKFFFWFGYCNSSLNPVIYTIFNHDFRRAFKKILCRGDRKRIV

[4] = 10 μM cRGD-ZW800-1, format H, Ag, performed twice, read-out: % Inhibition of Control Specific Binding
[5] = 10 μM, mean of 2, read-out: % of Control Specific Binding Mean

T1 sequence (P29274 whole entry): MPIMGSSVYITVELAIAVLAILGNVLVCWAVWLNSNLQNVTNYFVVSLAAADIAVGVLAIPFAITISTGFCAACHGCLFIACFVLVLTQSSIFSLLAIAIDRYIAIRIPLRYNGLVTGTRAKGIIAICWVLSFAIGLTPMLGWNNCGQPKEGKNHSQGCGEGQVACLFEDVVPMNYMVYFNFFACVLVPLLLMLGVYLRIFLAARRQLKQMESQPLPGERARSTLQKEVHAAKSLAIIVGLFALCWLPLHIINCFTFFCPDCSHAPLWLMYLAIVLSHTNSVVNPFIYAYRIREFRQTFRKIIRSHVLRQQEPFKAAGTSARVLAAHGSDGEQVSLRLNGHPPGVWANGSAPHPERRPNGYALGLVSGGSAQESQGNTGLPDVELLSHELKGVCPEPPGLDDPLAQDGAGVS

CC1(C)C(/C=C/C2=C(Oc3ccc(CCC(=O)NCCCC[C@@H]4NC(=O)[C@@H](Cc5ccc(O)cc5)NC(=O)[C@H](CC(=O)O)NC(=O)CNC(=O)[C@H](CCCNC(=N)N)NC4=O)cc3)C(=C/C=C3/N(CCC[N+](C)(C)C)c4ccc(S(=O)(=O)O)cc4C3(C)C)/CCC2)=[N+](CCC[N+](C)(C)C)c2ccc(S(=O)(=O)O)cc21 [cRGD-ZW800-1]
inhibition at 10 µM (Adenosine A2A; [4]): 8%
remaining activity at 10 µM (Adenosine A2A; [5]): 91.9%
inhibition at 10 µM (Cannabinoid CB1; [4]): -6%
remaining activity at 10 µM (Cannabinoid CB1; [5]): 106%
mean TBR (OSC-19 oral tumors): 5.4 ± 1.1
fluorescence signal in kidneys (all dose groups), liver and skin (only 10 and 30 nmol) compared to tumor (HT-29 tumors and organs): higher
tumor fluorescence relative to lungs, pancreas, muscle, gallbladder, brain, and blood (HT-29 tumors and organs; all dose groups): more than twice as fluorescent
inhibition at 10 µM [1, 4]: -8%
remaining activity at 10 µM [1, 5]: 108%
inhibition at 10 µM (Acetylcholinesterase; 10 μM cRGD-ZW800-1, format H, performed twice, read-out: % Inhibition of Control Specific Binding): 2%
remaining activity at 10 µM (Acetylcholinesterase; [5]): 98.4%
inhibition at 10 µM [2, 4]: 10%
remaining activity at 10 µM [2, 5]: 89.9%
inhibition at 10 µM [3, 4]: 9%
remaining activity at 10 µM [3, 5]: 91.4%
inhibition at 10 µM (Opioid δ (DOP); [4]): 14%
remaining activity at 10 µM (Opioid δ (DOP); [5]): 85.5%
inhibition at 10 µM (Opioid κ (KOP); read-out: % Inhibition of Control Specific Binding): 19%
remaining activity at 10 µM (Opioid κ (KOP); read-out: % of Control Specific Binding Mean): 81.2%
inhibition at 10 µM (Adrenergic α2A; 10 μM cRGD-ZW800-1, format H, An, performed twice, read-out: % Inhibition of Control Specific Binding): -4%
remaining activity at 10 µM (Adrenergic α2A; [5]): 104%
